Laboratory results as given in ChEMBL document CHEMBL5143732 (J Med Chem, 2022).

What was measured:
[1] = molecular target: Voltage-gated inwardly rectifying potassium channel KCNH2 (Homo sapiens, UniProt Q12809); assay: Inhibition of hERG expressed in CHO cells at -80 mV holding potential by automated patch clamp method; format: toxicity, cell-based
Cytochrome P450 3A4 = Cytochrome P450 3A4 (Homo sapiens, UniProt P08684); assay: Inhibition of CYP3A4 in human liver microsome using midazolam and testostrone as substrate preincubated for 10 mins followed by NADPH addition and measured after 15 mins by LC-MS/MS analysis; format: ADME, microsomes
Cytochrome P450 3A4, sequence (P08684 whole entry): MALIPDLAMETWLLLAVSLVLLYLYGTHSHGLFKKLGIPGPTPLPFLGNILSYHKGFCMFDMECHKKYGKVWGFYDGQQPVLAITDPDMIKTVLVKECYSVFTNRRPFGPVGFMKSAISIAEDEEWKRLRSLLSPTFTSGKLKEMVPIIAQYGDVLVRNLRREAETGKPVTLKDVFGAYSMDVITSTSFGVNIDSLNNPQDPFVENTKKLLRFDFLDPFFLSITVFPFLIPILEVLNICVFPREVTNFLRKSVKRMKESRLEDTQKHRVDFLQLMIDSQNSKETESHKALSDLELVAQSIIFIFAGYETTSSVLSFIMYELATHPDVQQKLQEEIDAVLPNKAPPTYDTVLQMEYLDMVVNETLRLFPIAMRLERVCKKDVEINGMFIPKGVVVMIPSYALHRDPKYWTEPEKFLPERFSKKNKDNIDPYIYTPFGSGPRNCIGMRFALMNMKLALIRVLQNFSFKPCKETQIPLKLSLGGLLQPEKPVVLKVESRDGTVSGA

[2] = Aggregation property of the compound in PBS at 7.4 pH assessed as dimerization at 5.4 uM by UV/vis double-beam spectrometer analysis; format: physicochemical; conditions: buffer, pH 7.4, 5.4 µM
Cytochrome P450 2C19 = Cytochrome P450 2C19 (Homo sapiens, UniProt P33261); assay: Inhibition of CYP2C19 in human liver microsome using mephenytoin as substrate preincubated for 10 mins followed by NADPH addition and measured after 15 mins by LC-MS/MS analysis; format: ADME, microsomes
Cytochrome P450 2C19, sequence (P33261 whole entry): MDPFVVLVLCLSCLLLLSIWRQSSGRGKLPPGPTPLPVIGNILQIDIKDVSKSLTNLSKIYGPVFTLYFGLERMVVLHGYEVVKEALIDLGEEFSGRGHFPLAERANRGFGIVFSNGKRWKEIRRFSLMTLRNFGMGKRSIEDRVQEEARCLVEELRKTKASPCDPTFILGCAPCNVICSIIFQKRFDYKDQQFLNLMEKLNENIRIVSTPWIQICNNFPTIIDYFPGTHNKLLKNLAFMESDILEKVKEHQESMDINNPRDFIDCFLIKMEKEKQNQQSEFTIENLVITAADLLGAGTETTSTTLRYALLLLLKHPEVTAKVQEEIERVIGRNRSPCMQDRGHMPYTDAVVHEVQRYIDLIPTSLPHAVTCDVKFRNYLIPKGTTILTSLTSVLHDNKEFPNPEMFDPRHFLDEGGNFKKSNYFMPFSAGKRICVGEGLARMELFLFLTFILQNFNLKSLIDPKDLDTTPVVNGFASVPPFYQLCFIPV

[3] = Aqueous solubility of compound at pH 6.8; format: physicochemical; conditions: buffer
Cytochrome P450 2C9 = Cytochrome P450 2C9 (Homo sapiens, UniProt P11712); assay: Inhibition of CYP2C9 in human liver microsome using tolbutamide as substrate preincubated for 10 mins followed by NADPH addition and measured after 15 mins by LC-MS/MS analysis; format: ADME, microsomes
Cytochrome P450 2C9, sequence (P11712 whole entry): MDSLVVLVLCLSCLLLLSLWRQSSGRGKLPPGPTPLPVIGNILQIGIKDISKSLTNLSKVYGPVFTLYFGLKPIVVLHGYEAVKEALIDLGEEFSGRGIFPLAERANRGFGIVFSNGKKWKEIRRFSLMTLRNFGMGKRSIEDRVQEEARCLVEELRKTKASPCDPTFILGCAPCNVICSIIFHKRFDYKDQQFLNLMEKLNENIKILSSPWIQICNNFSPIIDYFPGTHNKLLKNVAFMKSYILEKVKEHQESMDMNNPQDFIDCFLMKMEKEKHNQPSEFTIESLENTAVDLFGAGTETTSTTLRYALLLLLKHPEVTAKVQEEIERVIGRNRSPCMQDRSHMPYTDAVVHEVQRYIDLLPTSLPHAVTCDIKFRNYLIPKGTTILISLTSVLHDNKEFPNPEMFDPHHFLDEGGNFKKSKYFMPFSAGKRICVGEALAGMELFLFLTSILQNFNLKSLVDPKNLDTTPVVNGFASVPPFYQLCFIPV

Cytochrome P450 1A2 = molecular target: T1, Cytochrome P450 1A2 (Homo sapiens, UniProt P05177); assay: Inhibition of CYP1A2 in human liver microsome using Phenacetin as substrate preincubated for 10 mins followed by NADPH addition and measured after 15 mins by LC-MS/MS analysis; format: ADME, microsomes
T1 sequence (P05177 whole entry): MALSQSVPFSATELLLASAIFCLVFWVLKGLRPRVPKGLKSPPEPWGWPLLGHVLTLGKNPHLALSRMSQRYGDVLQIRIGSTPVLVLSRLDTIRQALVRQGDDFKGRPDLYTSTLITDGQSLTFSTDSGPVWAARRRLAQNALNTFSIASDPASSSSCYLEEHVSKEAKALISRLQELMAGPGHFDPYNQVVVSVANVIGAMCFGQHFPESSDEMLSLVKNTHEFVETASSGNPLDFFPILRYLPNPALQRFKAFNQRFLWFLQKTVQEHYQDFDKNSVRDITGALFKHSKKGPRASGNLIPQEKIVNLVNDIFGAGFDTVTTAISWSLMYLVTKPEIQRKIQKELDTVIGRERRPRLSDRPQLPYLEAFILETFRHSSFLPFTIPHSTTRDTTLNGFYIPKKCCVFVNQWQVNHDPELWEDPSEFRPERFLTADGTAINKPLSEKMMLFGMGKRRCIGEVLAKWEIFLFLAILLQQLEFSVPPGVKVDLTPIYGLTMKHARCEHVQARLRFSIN

Cytochrome P450 2D6 = Cytochrome P450 2D6 (Homo sapiens, UniProt P10635); assay: Inhibition of CYP2D6 in human liver microsome using dextromethorphan as substrate preincubated for 10 mins followed by NADPH addition and measured after 15 mins by LC-MS/MS analysis; format: ADME, microsomes
Cytochrome P450 2D6, sequence (P10635 whole entry): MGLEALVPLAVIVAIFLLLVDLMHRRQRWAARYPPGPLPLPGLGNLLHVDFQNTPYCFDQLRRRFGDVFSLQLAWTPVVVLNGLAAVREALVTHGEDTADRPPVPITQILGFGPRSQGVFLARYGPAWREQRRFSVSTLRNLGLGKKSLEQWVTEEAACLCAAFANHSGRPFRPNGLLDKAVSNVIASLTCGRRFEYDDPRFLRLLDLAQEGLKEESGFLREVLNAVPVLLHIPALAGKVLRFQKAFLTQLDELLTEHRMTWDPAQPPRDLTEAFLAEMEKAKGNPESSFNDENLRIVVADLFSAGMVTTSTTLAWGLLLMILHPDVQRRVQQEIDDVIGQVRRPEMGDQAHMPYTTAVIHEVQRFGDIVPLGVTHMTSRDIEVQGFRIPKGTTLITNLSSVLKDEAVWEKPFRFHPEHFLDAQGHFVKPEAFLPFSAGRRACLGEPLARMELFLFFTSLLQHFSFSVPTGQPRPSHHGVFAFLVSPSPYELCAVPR

Voltage-gated inwardly rectifying potassium channel KCNH2, sequence (Q12809 whole entry): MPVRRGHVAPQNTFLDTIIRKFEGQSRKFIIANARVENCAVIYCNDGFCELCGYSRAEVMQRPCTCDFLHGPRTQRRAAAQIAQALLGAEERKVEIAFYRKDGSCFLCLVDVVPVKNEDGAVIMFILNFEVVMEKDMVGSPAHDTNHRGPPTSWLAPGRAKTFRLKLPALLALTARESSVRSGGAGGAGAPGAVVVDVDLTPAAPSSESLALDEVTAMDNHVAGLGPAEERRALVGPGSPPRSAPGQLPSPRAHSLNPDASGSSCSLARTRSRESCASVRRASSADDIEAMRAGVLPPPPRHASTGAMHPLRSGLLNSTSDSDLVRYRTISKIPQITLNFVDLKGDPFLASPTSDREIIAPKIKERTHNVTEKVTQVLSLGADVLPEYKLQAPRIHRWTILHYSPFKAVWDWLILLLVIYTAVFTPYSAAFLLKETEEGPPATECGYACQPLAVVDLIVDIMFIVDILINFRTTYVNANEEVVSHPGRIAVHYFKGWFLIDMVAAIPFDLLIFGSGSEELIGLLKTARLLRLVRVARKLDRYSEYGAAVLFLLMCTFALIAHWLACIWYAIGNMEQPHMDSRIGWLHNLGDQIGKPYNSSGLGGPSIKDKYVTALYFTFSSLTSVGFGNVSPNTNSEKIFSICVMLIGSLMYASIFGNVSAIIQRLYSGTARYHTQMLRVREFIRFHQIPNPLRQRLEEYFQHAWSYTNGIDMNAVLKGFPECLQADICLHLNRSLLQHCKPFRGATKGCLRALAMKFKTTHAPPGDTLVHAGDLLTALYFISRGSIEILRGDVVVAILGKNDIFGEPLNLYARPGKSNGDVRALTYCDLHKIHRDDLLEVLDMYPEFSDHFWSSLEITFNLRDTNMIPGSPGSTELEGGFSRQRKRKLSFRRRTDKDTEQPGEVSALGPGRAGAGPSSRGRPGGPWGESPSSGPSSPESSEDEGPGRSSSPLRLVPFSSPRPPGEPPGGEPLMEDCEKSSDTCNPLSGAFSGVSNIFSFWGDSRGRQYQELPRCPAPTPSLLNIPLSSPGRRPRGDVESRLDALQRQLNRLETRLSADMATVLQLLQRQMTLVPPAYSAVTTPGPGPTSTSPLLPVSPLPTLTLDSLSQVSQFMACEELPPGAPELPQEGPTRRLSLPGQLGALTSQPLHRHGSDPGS

With CNCC(=O)N[C@@H]1[C@H](O)[C@H](O[C@H]2/C=C/C=C/C=C/C=C/C=C/C=C/C=C/[C@H](C)[C@@H](O)[C@@H](C)[C@H](C)OC(=O)C[C@H](O)C[C@H](O)CC[C@@H](O)[C@H](O)C[C@H](O)C[C@]3(O)C[C@H](O)[C@@H](C(=O)NCCN)[C@H](C2)O3)O[C@H](C)[C@H]1O.NC(CCC(=O)O)C(=O)O the IC50 [1] was over 13.3 µM, the IC50 (Cytochrome P450 3A4) was 36.9 µM and the Activity [2] was “Active”. For the same compound, the IC50 (Cytochrome P450 2C19) was over 50 µM, the solubility [3] was 106 mg/mL and the IC50 (Cytochrome P450 2C9) was over 50 µM. The IC50 (Cytochrome P450 1A2) was over 25 µM and the IC50 (Cytochrome P450 2D6) was over 50 µM.
